# Results published in patent publication US11440899B2, “Pyrimidine TBK/IKKe inhibitor compounds and uses thereof” (Merck Patent GmbH, priority 2017, dated 2022).
# Counter-ions that a name gives are not always drawn.
# Columns and labels:
# [1] = molecular target: TBK1 (Homo sapiens (Human), UniProt Q9UHD2); assay: TBK Biochemical Assay
# Description: Example 106: TBK Biochemical Assay Test compounds were transferred into Labcyte polypropylene 384 well plates ([…]-25) and diluted to 3 mM using DMSO. 3 mM test compounds were dispensed using Labcyte ECHO dose response module into Greiner 784075 plates (columns 3-12 and 13-22, 10 point 1:4) so that high concentration was 30 uM final. 100 uM of a reference compound (1 uM final high concentration). Backfilling was performed if necessary so that all wells contain 1% DMSO final: add 75 nl DMSO/well into columns 1, 2 and 24 using Labcyte Echo. add 75 nl 1.0 mM staurosporine/well into column 23 using Labcyte Echo (10 uM final) add 4.5 ul enzyme/well using multidrop dispenser add 3 ul substrate/well using multidrop dispenser incubate at 25° C. in Heidolph incubator for 90 min. add 7.5 ul 2× stop buffer using multidrop dispenser read on labchip ez reader II using TBK1.job Raw data files were opened in the Caliper LabChip Reviewer program (Version 3.0.265.0 SP2) and peak assignments were adjusted to reflect “substrate first” with the software's post-run analysis options. A spline-fit baseline was applied using the software's analysis algorithm.
# [2] = molecular target: IKKe (Homo sapiens (Human), UniProt Q14164); assay: IKKe Biochemical Assay
# IKKe, sequence (Q14164 whole entry, species assumed): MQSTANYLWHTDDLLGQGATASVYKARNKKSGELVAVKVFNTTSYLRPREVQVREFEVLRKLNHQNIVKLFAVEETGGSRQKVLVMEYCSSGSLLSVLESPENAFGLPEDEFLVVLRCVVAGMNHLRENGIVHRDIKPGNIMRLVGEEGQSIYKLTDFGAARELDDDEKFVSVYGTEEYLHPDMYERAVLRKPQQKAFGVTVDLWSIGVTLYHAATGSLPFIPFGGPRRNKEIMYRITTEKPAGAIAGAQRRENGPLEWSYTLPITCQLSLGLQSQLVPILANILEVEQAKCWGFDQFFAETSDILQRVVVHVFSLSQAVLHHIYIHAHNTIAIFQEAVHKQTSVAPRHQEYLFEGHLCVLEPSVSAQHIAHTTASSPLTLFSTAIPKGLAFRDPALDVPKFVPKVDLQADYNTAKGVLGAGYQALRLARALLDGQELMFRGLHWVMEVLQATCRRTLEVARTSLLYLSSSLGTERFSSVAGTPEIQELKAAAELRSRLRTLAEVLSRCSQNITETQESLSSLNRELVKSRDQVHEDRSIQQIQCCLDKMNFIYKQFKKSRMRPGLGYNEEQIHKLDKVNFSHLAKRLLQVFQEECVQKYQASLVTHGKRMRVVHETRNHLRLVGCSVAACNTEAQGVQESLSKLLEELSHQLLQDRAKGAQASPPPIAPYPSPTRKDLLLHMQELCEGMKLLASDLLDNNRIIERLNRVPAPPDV
# Description: IKKe Biochemical Assay Test compounds were transferred into Labcyte polypropylene 384 well plates ([…]-25) and diluted to 3 mM using DMSO. 3 mM test compounds were dispensed using Labcyte ECHO dose response module into Greiner 784075 plates (columns 3-12 and 13-22, 10 point 1:4) so that high concentration was 30 uM final. 100 uM of a reference compound (1 uM final high concentration). Backfilling was performed if necessary so that all wells contain 1% DMSO final: add 75 nl DMSO/well into columns 1, 2 and 24 using Labcyte Echo. add 75 nl 1.0 mM staurosporine/well into column 23 using Labcyte Echo (10 uM final) add 4.5 ul enzyme/well using multidrop dispenser add 3 ul substrate/well using multidrop dispenser incubate at 25° C. for 90 min. add 7.5 ul 2× stop buffer read on labchip ez reader II using IKKε. job Raw data files were opened in the Caliper LabChip Reviewer program (Version 3.0.265.0 SP2) and peak assignments were adjusted to reflect “substrate first” with the software's post-run analysis options. A spline-fit baseline was applied using the software's analysis algorithm.
# TBK1, sequence (Q9UHD2 whole entry, species assumed): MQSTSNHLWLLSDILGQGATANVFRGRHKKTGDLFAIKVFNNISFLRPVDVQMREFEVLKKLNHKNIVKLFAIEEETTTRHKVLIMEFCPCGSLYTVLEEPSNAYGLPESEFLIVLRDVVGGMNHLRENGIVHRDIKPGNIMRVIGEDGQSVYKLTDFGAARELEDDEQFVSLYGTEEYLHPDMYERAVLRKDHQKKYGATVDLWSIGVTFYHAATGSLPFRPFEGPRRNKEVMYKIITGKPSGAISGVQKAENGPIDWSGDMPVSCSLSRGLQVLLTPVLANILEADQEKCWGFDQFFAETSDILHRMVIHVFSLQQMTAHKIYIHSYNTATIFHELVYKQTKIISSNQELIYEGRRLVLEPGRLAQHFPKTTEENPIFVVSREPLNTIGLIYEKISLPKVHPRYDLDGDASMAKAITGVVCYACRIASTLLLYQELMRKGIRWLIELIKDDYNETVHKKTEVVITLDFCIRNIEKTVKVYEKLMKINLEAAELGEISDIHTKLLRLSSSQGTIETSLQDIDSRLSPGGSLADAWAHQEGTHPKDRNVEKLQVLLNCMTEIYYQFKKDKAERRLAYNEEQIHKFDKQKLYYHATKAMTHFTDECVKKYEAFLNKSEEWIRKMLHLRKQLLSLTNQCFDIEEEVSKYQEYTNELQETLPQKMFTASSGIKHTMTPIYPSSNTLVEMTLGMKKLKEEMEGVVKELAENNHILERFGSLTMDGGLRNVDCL
SMILES,IC50 [1],IC50 [2]
"COc1nc(Nc2cc(-c3ccc(OC4CCNCC4)c(C#N)c3)ncn2)ccc1N1CCN(C)CC1 [Example 50, 5-(6-[[6-methoxy-5-(4-methylpiperazin-1-yl)pyridin-2-yl]amino]pyrimidin-4-yl)-2-(piperidin-4-yloxy)benzonitrile]",< 100 nM,< 100 nM
"COc1nc(Nc2cc(-c3ccc(OC4CCN(C)CC4)c(C#N)c3)ncn2)ccc1N1CCN(C)CC1 [Example 51, 5-(6-[[6-methoxy-5-(4-methylpiperazin-1-yl)pyridin-2-yl]amino]pyrimidin-4-yl)-2-[(1-methylpiperidin-4-yl)oxy]benzonitrile]",100 to 1000 nM,100 to 1000 nM
"COc1nc(Nc2cc(-c3ccc(OC4CCN(C(=O)CO)CC4)c(C#N)c3)ncn2)ccc1N1CCN(C)CC1 [Example 52, 2-[[1-(2-hydroxyacetyl)piperidin-4-yl]oxy]-5-(6-[[6-methoxy-5-(4-methylpiperazin-1-yl)pyridin-2-yl]amino]pyrimidin-4-yl)benzonitrile]",< 100 nM,< 100 nM
"COc1nc(Nc2cc(-c3ccc(OC4CCN(C(=O)C(C)O)CC4)c(C#N)c3)ncn2)ccc1N1CCN(C)CC1 (stereo not drawn) [Example 53, 2-[[1-(2-hydroxypropanoyl)piperidin-4-yl]oxy]-5-(6-[[6-methoxy-5-(4-methylpiperazin-1-yl)pyridin-2-yl]amino]pyrimidin-4-yl)benzonitrile]",< 100 nM,< 100 nM
"COc1nc(Nc2cc(-c3ccc(OC4CCN(C(=O)c5cocn5)CC4)c(C#N)c3)ncn2)ccc1N1CCN(C)CC1 [Example 54, 5-(6-[[6-methoxy-5-(4-methylpiperazin-1-yl)pyridin-2-yl]amino]pyrimidin-4-yl)-2-([1-[(1,3-oxazol-4-yl)carbonyl]piperidin-4-yl]oxy)benzonitrile]",< 100 nM,< 100 nM
"COc1nc(Nc2cc(-c3ccc(OC4CCN(C(=O)c5n[nH]c(C)n5)CC4)c(C#N)c3)ncn2)ccc1N1CCN(C)CC1 [Example 55, 5-(6-[[6-methoxy-5-(4-methylpiperazin-1-yl)pyridin-2-yl]amino]pyrimidin-4-yl)-2-([1-[(5-methyl-1H-1,2,4-triazol-3-yl)carbonyl]piperidin-4-yl]oxy)benzonitrile]",< 100 nM,< 100 nM
"COc1nc(Nc2cc(-c3ccc(OC4CCN(C(=O)c5cnco5)CC4)c(C#N)c3)ncn2)ccc1N1CCN(C)CC1 [Example 56, 5-(6-[[6-methoxy-5-(4-methylpiperazin-1-yl)pyridin-2-yl]amino]pyrimidin-4-yl)-2-([1-[(1,3-oxazol-5-yl)carbonyl]piperidin-4-yl]oxy)benzonitrile]",< 100 nM,< 100 nM
"COc1nc(Nc2cc(-c3ccc(O[C@H]4CCN(C(=O)c5cnn[nH]5)C[C@H]4F)c(C#N)c3)ncn2)ccc1N1CCN(C)CC1 [Example 57, 2-[[(3R,4S)-3-fluoro-1-[(1H-1,2,3-triazol-5-yl)carbonyl]piperidin-4-yl]oxy]-5-(6-[[6-methoxy-5-(4-methylpiperazin-1-yl)pyridin-2-yl]amino]pyrimidin-4-yl)benzonitrile]",< 100 nM,< 100 nM
"COc1nc(Nc2cc(-c3ccc(OC4CCN(C)CC4(F)F)c(C#N)c3)ncn2)ccc1N1CCN(C)CC1 (stereo not drawn) [Example 58, 2-[(3,3-difluoro-1-methylpiperidin-4-yl)oxy]-5-(6-[[6-methoxy-5-(4-methylpiperazin-1-yl)pyridin-2-yl]amino]pyrimidin-4-yl)benzonitrile]",< 100 nM,< 100 nM
"COc1nc(Nc2cc(-c3ccc(OC4CCN(C(=O)CO)CC4(F)F)c(C#N)c3)ncn2)ccc1N1CCN(C)CC1 (stereo not drawn) [Example 59, 2-[[3,3-difluoro-1-(2-hydroxyacetyl)piperidin-4-yl]oxy]-5-(6-[[6-methoxy-5-(4-methylpiperazin-1-yl)pyridin-2-yl]amino]pyrimidin-4-yl)benzonitrile]",< 100 nM,< 100 nM
"COc1nc(Nc2cc(-c3ccc(O[C@H]4CCN(C(=O)CO)CC4(F)F)c(C#N)c3)ncn2)ccc1N1CCN(C)CC1 [Example 60, 2-[[(4S)-3,3-difluoro-1-(2-hydroxyacetyl)piperidin-4-yl]oxy]-5-(6-[[6-methoxy-5-(4-methylpiperazin-1-yl)pyridin-2-yl]amino]pyrimidin-4-yl)benzonitrile]",< 100 nM,< 100 nM
"COc1nc(Nc2cc(-c3ccc(OC4CCN(C(=O)[C@H](C)O)CC4(F)F)c(C#N)c3)ncn2)ccc1N1CCN(C)C[C@@H]1C (stereo partly drawn) [Example 62, 2-([3,3-difluoro-1-[(2S)-2-hydroxypropanoyl]piperidin-4-yl]oxy)-5-[6-([5-[(2S)-2,4-dimethylpiperazin-1-yl]-6-methoxypyridin-2-yl]amino)pyrimidin-4-yl]benzonitrile hydrochloride]",< 100 nM,< 100 nM
"COc1nc(Nc2cc(-c3ccc(OC4CCN(C(=O)[C@@H](C)O)CC4(F)F)c(C#N)c3)ncn2)ccc1N1CCN(C)C[C@@H]1C (stereo partly drawn) [Example 63, 2-([3,3-difluoro-1-[(2R)-2-hydroxypropanoyl]piperidin-4-yl]oxy)-5-[6-([5-[(2S)-2,4-dimethylpiperazin-1-yl]-6-methoxypyridin-2-yl]amino)pyrimidin-4-yl]benzonitrile hydrochloride]",< 100 nM,< 100 nM
"COc1nc(Nc2cc(-c3ccc(OC4CCNCC4(F)F)c(C#N)c3)ncn2)ccc1N1CCN(C)C[C@H]1C (stereo partly drawn) [Example 64, 2-[(3,3-difluoropiperidin-4-yl)oxy]-5-[6-({5-[(2R)-2,4-dimethylpiperazin-1-yl]-6-methoxypyridin-2-yl}amino)pyrimidin-4-yl]benzonitrile]",< 100 nM,< 100 nM
"COc1nc(Nc2cc(-c3ccc(OC4CCN(C(=O)[C@H](C)O)CC4(F)F)c(C#N)c3)ncn2)ccc1N1CCN(C)C[C@H]1C (stereo partly drawn) [Example 65, 2-([3,3-difluoro-1-[(2S)-2-hydroxypropanoyl]piperidin-4-yl]oxy)-5-[6-([5-[(2R)-2,4-dimethylpiperazin-1-yl]-6-methoxypyridin-2-yl]amino)pyrimidin-4-yl]benzonitrile hydrochloride]",< 100 nM,< 100 nM
"COc1nc(Nc2cc(-c3ccc(OC4CCN(C(=O)[C@@H](C)O)CC4(F)F)c(C#N)c3)ncn2)ccc1N1CCN(C)C[C@H]1C (stereo partly drawn) [Example 66, 2-([3,3-difluoro-1-[(2R)-2-hydroxypropanoyl]piperidin-4-yl]oxy)-5-[6-([5-[(2R)-2,4-dimethylpiperazin-1-yl]-6-methoxypyridin-2-yl]amino)pyrimidin-4-yl]benzonitrile hydrochloride]",< 100 nM,< 100 nM
"COc1nc(Nc2cc(-c3ccc(OC4CCNCC4(F)F)c(C#N)c3)ncn2)ccc1N1CCN(C2COC2)C[C@@H]1C (stereo partly drawn) [Example 67, 2-[(3,3-difluoropiperidin-4-yl)oxy]-5-[6-({6-methoxy-5-[(2S)-2-methyl-4-(oxetan-3-yl)piperazin-1-yl]pyridin-2-yl}amino)pyrimidin-4-yl]benzonitrile]",< 100 nM,< 100 nM
"COc1nc(Nc2cc(-c3ccc(OC4CCN(C(=O)[C@@H](C)O)CC4(F)F)c(C#N)c3)ncn2)ccc1N1CCN(C2COC2)C[C@@H]1C (stereo partly drawn) [Example 68, 2-([3,3-difluoro-1-[(2R)-2-hydroxypropanoyl]piperidin-4-yl]oxy)-5-[6-([6-methoxy-5-[(2S)-2-methyl-4-(oxetan-3-yl)piperazin-1-yl]pyridin-2-yl]amino)pyrimidin-4-yl]benzonitrile]",< 100 nM,< 100 nM
"COc1nc(Nc2cc(-c3ccc(OC4CCNCC4(F)F)c(C#N)c3)ncn2)ccc1N1CCN(C2COC2)C[C@H]1C (stereo partly drawn) [Example 69, 2-[(3,3-difluoropiperidin-4-yl)oxy]-5-[6-({6-methoxy-5-[(2R)-2-methyl-4-(oxetan-3-yl)piperazin-1-yl]pyridin-2-yl}amino)pyrimidin-4-yl]benzonitrile]",< 100 nM,< 100 nM
"COc1nc(Nc2cc(-c3ccc(OC4CCN(C(=O)[C@@H](C)O)CC4(F)F)c(C#N)c3)ncn2)ccc1N1CCN(C2COC2)C[C@H]1C (stereo partly drawn) [Example 70, 2-([3,3-difluoro-1-[(2R)-2-hydroxypropanoyl]piperidin-4-yl]oxy)-5-[6-([6-methoxy-5-[(2R)-2-methyl-4-(oxetan-3-yl)piperazin-1-yl]pyridin-2-yl]amino)pyrimidin-4-yl]benzonitrile]",< 100 nM,< 100 nM
"COc1nc(Nc2cc(-c3ccc(OC4CCN(C(=O)[C@H](C)O)CC4(F)F)c(C#N)c3)ncn2)ccc1N1CCN(C2COC2)C[C@H]1C (stereo partly drawn) [Example 71, 2-([3,3-difluoro-1-[(2S)-2-hydroxypropanoyl]piperidin-4-yl]oxy)-5-[6-([6-methoxy-5-[(2R)-2-methyl-4-(oxetan-3-yl)piperazin-1-yl]pyridin-2-yl]amino)pyrimidin-4-yl]benzonitrile]",< 100 nM,< 100 nM
